In the NIST ThermoML archive (doi:10.1021/je100315g):

Columns and labels:
[1] = xn = mol fraction of the nth substance listed; conditions: 101 kPa, Liquid
[2] = 101 kPa, Liquid

CCCC[n+]1ccn(C)c1.O=S(=O)([N-]S(=O)(=O)C(F)(F)F)C(F)(F)F + C[S+](C)[O-]
mass density [kg/m3], [1]
Conditions | 293.15 K | 298.15 K | 303.13 K | 308.15 K | 313.15 K
x1 = 0.1025 | 1202.34 | 1197.39 | 1192.43 | 1187.49 | 1182.55
x1 = 0.196 | 1263.15 | 1258.21 | 1253.26 | 1248.31 | 1243.37
x1 = 0.2358 | 1283.38 | 1278.4 | 1273.45 | 1268.49 | 1263.51
x1 = 0.3241 | 1319.45 | 1314.52 | 1309.58 | 1304.64 | 1299.72
x1 = 0.4205 | 1349.72 | 1344.81 | 1339.88 | 1334.99 | 1330.05
x1 = 0.4785 | 1364.67 | 1359.72 | 1354.8 | 1349.87 | 1344.87
x1 = 0.5179 | 1373.61 | 1368.67 | 1363.77 | 1358.86 | 1353.93
x1 = 0.5911 | 1388.28 | 1383.33 | 1378.5 | 1373.59 | 1368.72
x1 = 0.6581 | 1400.07 | 1395.16 | 1390.25 | 1385.42 | 1380.54
x1 = 0.8232 | 1423.06 | 1418.22 | 1413.34 | 1408.48 | 1403.6
x1 = 1 | 1441.63 | 1436.83 | 1431.98 | 1427.16 | 1422.36

CCn1cc[n+](C)c1.O=S(=O)([N-]S(=O)(=O)C(F)(F)F)C(F)(F)F + C[S+](C)[O-]
mass density [kg/m3], [1]
Conditions | x1 = 0.0593 | x1 = 0.1959 | x1 = 0.3595 | x1 = 0.5086 | x1 = 0.6325 | x1 = 0.7778 | x1 = 0.9378 | x1 = 1
293.15 K | 1173.7 | 1289.73 | 1375.56 | 1427.76 | 1459.88 | 1489.12 | 1513.61 | 1522.08
298.15 K | 1168.67 | 1284.68 | 1370.44 | 1422.61 | 1454.75 | 1484.04 | 1508.51 | 1516.96
303.13 K | 1163.66 | 1279.59 | 1365.31 | 1417.47 | 1449.64 | 1478.96 | 1503.42 | 1511.85
308.15 K | 1158.66 | 1274.53 | 1360.26 | 1412.42 | 1444.59 | 1473.89 | 1498.38 | 1506.8
313.15 K | 1153.63 | 1269.48 | 1355.2 | 1407.36 | 1439.52 | 1468.84 | 1493.29 | 1501.74

CC#N [acetonitrile]
[2]
Conditions | mass density [kg/m3]
293.15 K | 781.89
298.15 K | 776.52
303.13 K | 771.12
308.15 K | 765.68
313.15 K | 760.2

CC#N [acetonitrile] + CCCC[n+]1ccn(C)c1.O=S(=O)([N-]S(=O)(=O)C(F)(F)F)C(F)(F)F
[1], x2 = 0
Conditions | mass density [kg/m3]
293.15 K | 781.89
298.15 K | 776.52
303.13 K | 771.12
308.15 K | 765.68
313.15 K | 760.2

CC#N [acetonitrile] + CCn1cc[n+](C)c1.O=S(=O)([N-]S(=O)(=O)C(F)(F)F)C(F)(F)F
[1], x2 = 0
Conditions | mass density [kg/m3]
293.15 K | 781.89
298.15 K | 776.52
303.13 K | 771.12
308.15 K | 765.68
313.15 K | 760.2

C[S+](C)[O-] [dimethyl sulfoxide]
[2]
Conditions | mass density [kg/m3]
293.15 K | 1100.31
298.15 K | 1095.3
303.13 K | 1090.31
308.15 K | 1085.27
313.15 K | 1080.27

C[S+](C)[O-] [dimethyl sulfoxide] + CCCC[n+]1ccn(C)c1.O=S(=O)([N-]S(=O)(=O)C(F)(F)F)C(F)(F)F
[1], x2 = 0
Conditions | mass density [kg/m3]
293.15 K | 1100.31
298.15 K | 1095.3
303.13 K | 1090.31
308.15 K | 1085.27
313.15 K | 1080.27

C[S+](C)[O-] [dimethyl sulfoxide] + CCn1cc[n+](C)c1.O=S(=O)([N-]S(=O)(=O)C(F)(F)F)C(F)(F)F
[1], x2 = 0
Conditions | mass density [kg/m3]
293.15 K | 1100.31
298.15 K | 1095.3
303.13 K | 1090.31
308.15 K | 1085.27
313.15 K | 1080.27

C1CCOC1 [tetrahydrofuran]
[2]
Conditions | mass density [kg/m3]
293.15 K | 887.41
298.15 K | 881.98
303.13 K | 876.47
308.15 K | 870.96

C1CCOC1 [tetrahydrofuran] + CCCC[n+]1ccn(C)c1.O=S(=O)([N-]S(=O)(=O)C(F)(F)F)C(F)(F)F
[1], x2 = 0
Conditions | mass density [kg/m3]
293.15 K | 887.41
298.15 K | 881.98
303.13 K | 876.47
308.15 K | 870.96

C1CCOC1 [tetrahydrofuran] + CCn1cc[n+](C)c1.O=S(=O)([N-]S(=O)(=O)C(F)(F)F)C(F)(F)F
[1], x2 = 0
Conditions | mass density [kg/m3]
293.15 K | 887.41
298.15 K | 881.98
303.13 K | 876.47
308.15 K | 870.96
